US6384061B1, “Hydantoin compounds and methods related thereto” (LG Chemical Ltd., priority 2000, dated 2002)

Legend:
Ras farnesyl transferase = target: T1, Ras farnesyl transferase (Homo sapiens, UniProt P49354+P49356); test: Ras farnesyl transferase inhibiting activity (filter-binding, tritium-farnesylpyrophosphate, Ras-CVLS substrate); format: biochemical; settings: recombinant Ras farnesyl transferase, 30 minutes at 37° C., read-out: Ftase IC50
T1 construct: made in house
Experimental: The enzyme reaction was performed in 50 μl of 50 mM Sodium HEPES buffer solution containing 25 mmol of potassium chloride. 25 mmol of magnesium chloride, 10 mmol of DTT and 50 μmol of zinc chloride. 1.5 μmol of Ras substrate protein, 0.15 μmol of tritium-farnesylpyrophosphate and 4.5 nmol of farnesyl transferase were used.
More specifically, in the initial step, farnesyl transferase was added to the above buffer solution, reaction was maintained for 30 minutes at 37° C. and then the reaction was stopped by adding 1 ml of ethanol solution containing 1M HCl. The formed precipitates were adsorbed to GF/B filter using Hopper harvestor(Hopper #225V) for filter-binding, washed with ethanol, and then radioactivity of the dried filter was measured using LKB β counter. Enzyme titer was measured in the unsaturated state of substrate where the concentrations of Ras substrate protein and farnesyl transferase have quantitative relationship. Enzyme inhibiting activity was measured using less than 5% of total reaction solution of the compound according to the present invention dissolved in dimethylsulfoxide(DMSO) solution as a reagent. Enzyme inhibiting activity was represented by percentage of the amount of the farnesyl incorporated with the reagent to that without the reagent.

[1] = test system: intracellular Ras farnesyl transferase, Rat2 cell line; test: Intracellular Ras farnesyl transferase inhibiting activity in transformed Rat2 cells (35S-methionine labelling, Y13-259 immunoprecipitation, SDS-PAGE); format: cell-based; settings: Rattus norvegicus; transformed Rat2 fibroblast cell line; concentration inhibiting 50% of farnesyl binding of Ras protein; read-out: Ftase CIC50
Experimental: In the present experiment, Rat2 cell line which expresses C-Harvey-Ras protein having transforming activity and Rat2 cell line(Korean patent application No. 97-14409) which is transformed with fused protein of H-Ras substituted with polybasic lysine domain at C-terminus of K-Ras were used. The experiment was performed by the modified Declue's method(Declue. J. E. et al., Cancer Research, 1991. 51, 712). Hereinafter, the experimental method will be described in more detail.
3×10^5 cells of transformed Rat2 fibroblast cell line were sprayed on 60 mm cell cultivation dish and cultivated for 48 hours in a cell incubator at 37° C. and after 50% or more of density was reached, it was treated with a reagent. The compound according to the present invention dissolved in dimethylsulfoxide(DMSO) was used as the reagent. 1% of dimethylsulfoxide was used in both control and experimental groups. After 4 hours from the treatment of the reagent, methionine labeled with 150 μCi of radioactive isotope, ^35S per 1 ml of medium, was added and after cultivating for 20 hours, the cells were washed with physiological saline water. The cells were lysed using 1 ml of cool cell lysis buffer solution(50 mM of Sodium Herpiss buffer solution containing 5 mmol of magnesium chloride. 1 mmol of DTT, 1% NP 40, 1 mmol of EDTA, 1 mmol of PMSF, 2 μmol of leupeptin, 2 μmol of pepstatin A and 2 μmol of antipain) and the supernatant was obtained by high-velocity centrifugation of 12,000 g×5 minutes. The amount of the labeled radioisotope of the supernatent was measured and standardized to obtain a quantitative result in immunoprecipitation reaction and then. Y13-259, monoclonal antiboby specifically binding to Ras protein(Furth, M. E. et al., J. Virol, 1982, 43, 294) was added and reacted for 15 hours at 4° C. Protein A bound to goat anti-murine Immunoglobulin antibody-agarose suspension was added to the solution and reacted for 1 hour at 4° C. and then, to remove unspecific binding product, immunoprecipitates were washed with buffer solution(50 mM Tris chloride buffer solution containing 50 mmol of sodium chloride, 0.5% of sodium dioxycolate, 0.5% of NP 40 and 0.1% of SDS). The precipitates were boiled in reagent buffer solution for electrophoresis and then, electrophoresis was performed using 13.5% of SDS polyacrylamide gel. After electrophoresis, the gel was fixed and dried. Then, the gel was exposed to X-ray film, developed and printed. From the result of the experiment, intensities of band of protein with and without farnesyl of Ras protein were measured, and the concentration of reagent inhibiting 50% of farnesyl binding was defined as CIC50, an intracellular Ras farnesyl transferase inhibiting activity.

[2] = target: T2, Geranylgeranyl transferase (Bos taurus, UniProt P29702+Q5EAD5); test: Geranylgeranyl transferase inhibiting activity (geranylgeranyl pyrophosphate, Ras-CVIL substrate); format: biochemical; settings: geranylgeranyl transferase purified from bovine brain, read-out: GGtase IC50
T2 construct: Geranylgeranyl transferase was purified from bovine brain; from tissue; host or cells: bovine brain
Experimental: To evaluate the selective enzyme inhibiting activity of the compound according to the present invention, inhibiting activity on geranylgeranyl transferase was measured. Geranylgeranyl transferase was purified from bovine brain with the method modified from Schber's method(Schber et al., J. Biol. Chem. 1990, 265, 14701). and substantially the same experiment as that of farnesyl transferase was performed using geranylgeranyl pyrophosphate and Ras-CVIL substrate protein under the similar condition to farnesyl transferase reaction.

| Structure (SMILES) | IC50 (Ras farnesyl transferase) | IC50 [2] | IC50 [1] |
| --- | --- | --- | --- |
| COC(=O)C(CCSC)NC(=O)CN1C(=O)N(CCc2c[nH]cn2)C(=O)C1(C)c1cccc2ccccc12 (stereo not drawn) [Compound 3, 2-(2-{3-[2-(1H-imidazol-4-yl)-ethyl]-5-methyl-5-naphthalen-1-yl-2,4-dioxo-imidazolidin-1-yl}-acetylamino)-4-methylsulfanyl-butyric acid methyl ester] | 2.5 µM | > 10 µM | 5 µM |
| COC(=O)C(CCSC)NC(=O)CN1C(=O)N(Cc2cnc[nH]2)C(=O)C1(C)c1cccc2ccccc12 (stereo not drawn) [Compound 5, 2-{2-[3-(3H-imidazol-4-yl-methyl)-5-methyl-5-naphthaten-1-yl-2,4-dioxo-imidazolidin-1-yl]-acetylamino}-4-methylsulfanyl-butyric acid methyl ester] | 190 µM | > 10 µM | 10 µM |
| CC1(c2cccc3ccccc23)C(=O)N(CCCc2cnc[nH]2)C(=O)N1CC(=O)N1CCSC1 (stereo not drawn) [Compound 10, 3-[3-(3H-imidazol-4-yl)-propyl]-5-methyl-5-naphthalen-1-yl-1-(2-oxo-2-thiazolidin-3-yl-ethyl)-imidazolidin-2,4-dione] | > 50 µM | > 10 µM | < 20 µM |
| CC1(c2cccc3ccccc23)C(=O)N(CCCc2cnc[nH]2)C(=O)N1CC(=O)N1CCS(=O)(=O)C1 (stereo not drawn) [Compound 11] | > 50 µM | > 10 µM | < 20 µM |
| CSCCC1SCCN1C(=O)CN1C(=O)N(CCCc2cnc[nH]2)C(=O)C1(C)c1cccc2ccccc12 (stereo not drawn) [Compound 12, 3-[3-(3H-imidazol-4-yl)-propyl]-5-methyl-1-{2-[2-(2-methylsulfanyl-ethyl)-thiazolidin-3-yl]-2-oxo-ethyl}-5-naphthalen-1-yl-imidazolidin-2,4-dione] | 5.5 µM | > 10 µM | < 20 µM |
| CC1(c2cccc3ccccc23)C(=O)N(CCCn2ccnc2)C(=O)N1Cc1ccccc1 (stereo not drawn) [Compound 16, 1-benzyl-3-(3-imidazol-1-yl-propyl)-5-methyl-5-naphthalen-1-yl-imidazolidin-2,4-dione] | 2.5 µM | > 10 µM | < 20 µM |
| CC1(c2cccc3ccccc23)C(=O)N(CCCn2ccnc2)C(=O)N1Cc1c(F)c(F)c(F)c(F)c1F (stereo not drawn) [Compound 17, 1-(pentafluoro-benzyl)-3-(3-imidazol-1-yl-propyl)-5-methyl-5-naphthalen-1-yl-imidazolidin-2,4-dione] | 1.5 µM | > 10 µM | < 20 µM |
| CC1(c2cccc3ccccc23)C(=O)N(CCCn2ccnc2)C(=O)N1Cc1cccnc1 (stereo not drawn) [Compound 18, 1-(3-pyridylmethyl)-3-(3-imidazol-1-yl-propyl)-5-methyl-5-naphthalen-1-yl-imidazolidin-2,4-dione] | 0.6 µM | > 10 µM | < 20 µM |

Molecules with a lower IC50 (Ras farnesyl transferase), results first:

| IC50 (Ras farnesyl transferase) | IC50 [2] | Structure (SMILES) | IC50 [1] |
| --- | --- | --- | --- |
| 0.5 µM | > 10 µM | COC(=O)C(CCSC)NC(=O)CN1C(=O)N(CCCc2c[nH]cn2)C(=O)C1(C)c1cccc2ccccc12 (stereo not drawn) [Compound 1, 2-(2-{3-[3-(1H-imidazol-4-yl)-propyl]-5-methyl-5-naphthalen-1-yl-2,4-dioxo-imidazolidin-1-yl}-acetylamino)-4-methylsulfanyl-butyric acid methyl ester] | 1 µM |
| 0.0008 µM | 3.4 µM | CSCCC(NC(=O)CN1C(=O)N(CCCc2c[nH]cn2)C(=O)C1(C)c1cccc2ccccc12)C(=O)O (stereo not drawn) [Compound 2, 2-(2-{3-[3-(1H-imidazol-4-yl)-propyl]-5-methyl-5-naphthalen-1-yl-2,4-dioxo-imidazolidin-1-yl}-acetylamino)-4-methylsulfanyl-butyric acid] | 5 µM |
| 0.0048 µM | 0.7 µM | CSCCC(NC(=O)CN1C(=O)N(CCc2c[nH]cn2)C(=O)C1(C)c1cccc2ccccc12)C(=O)O (stereo not drawn) [Compound 4, 2-(2-{3-[2-(1H-imidazol-4-yl)-ethyl]-5-methyl-5-naphthalen-1-yl-2,4-dioxo-imidazolidin-1-yl}-acetylamino)-4-methylsulfanyl-butyric acid] | 10 µM |
| 0.061 µM | > 10 µM | CSCCC(NC(=O)CN1C(=O)N(Cc2cnc[nH]2)C(=O)C1(C)c1cccc2ccccc12)C(=O)O (stereo not drawn) [Compound 6, 2-{2-[3-(3H-imidazol-4-yl-methyl)-5-methyl-5-naphthalen-1-yl-2,4-dioxo-imidazolidin-1-yl]-acetylamino}-4-methylsulfanyl-butyric acid] | 7.3 µM |
| 0.18 µM | > 10 µM | COC(=O)C(CCSC)NC(=O)CN1C(=O)N(Cc2cncn2Cc2ccc(C#N)cc2)C(=O)C1(C)c1cccc2ccccc12 (stereo not drawn) [Compound 7, 2-(2-{3-[3-(4-cyano-benzyl)-imidazol-4-yl-methyl]-5-methyl-5-naphthalen-1-yl-2,4-dioxo-imidazolidin-1-yl}-acetylamino)-4-methylsulfanyl-butyric acid methyl ester] | < 20 µM |
| 0.014 µM | > 10 µM | CSCCC(NC(=O)CN1C(=O)N(Cc2cncn2Cc2ccc(C#N)cc2)C(=O)C1(C)c1cccc2ccccc12)C(=O)O (stereo not drawn) [Compound 8, 2-(2-{3-[3-(4-cyano-benzyl)-imidazol-4-yl-methyl]-5-methyl-5-naphthalen-1-yl-2,4-dioxo-imidazolidin-1-yl}-acetylamino)-4-methylsulfanyl-butyric acid] | < 20 µM |
| 0.015 µM | 80 µM | CC1(c2cccc3ccccc23)C(=O)N(CCCc2cnc[nH]2)C(=O)N1CC(=O)NC(Cc1cccs1)C(=O)O (stereo not drawn) [Compound 9, 2-(2-{3-[3-(3H-imidazol-4-yl)-propyl]-5-methyl-5-naphthalen-1-yl-2,4-dioxo-imidazolidin-1-yl}-acetamino)-3-thiophen-2-yl-propionic acid] | < 1 µM |
| 0.0015 µM | > 10 µM | CC1(c2cccc3ccccc23)C(=O)N(CCCc2cnc[nH]2)C(=O)N1CC(=O)NC(CCS(C)(=O)=O)C(=O)O (stereo not drawn) [Compound 13, 2-(2-{3-[3-(3H-imidazol-4-yl)-propyl]-5-methyl-5-naphthalen-1-yl-2,4-dioxo-imidazolidin-1-yl}-acetylamino)-4-methylsulfonyl-butyric acid] | < 20 µM |
| 0.001 µM | > 10 µM | CSCCC(NC(=O)CN1C(=O)N(CCCn2ccnc2)C(=O)C1(C)c1cccc2ccccc12)C(=O)O (stereo not drawn) [Compound 14, 2-{2-[3-(3-imidazol-1-yl-propyl)-5-methyl-5-naphthalen-1-yl-2,4-dioxo-imidazolidin-1-yl]-acetylamino}-4-methylsulfanyl-butyric acid] | < 20 µM |
| 0.002 µM | > 10 µM | CSCCC(NC(=O)CN1C(=O)N(CCn2ccnc2)C(=O)C1(C)c1cccc2ccccc12)C(=O)O (stereo not drawn) [Compound 15, 2-{2-[3-(2-imidazol-1-yl-ethyl)-5-methyl-5-naphthalen-1-yl-2,4-dioxo-imidazolidin-1-yl]-acetylamino}-4-methylsulfanyl-butyric acid] | < 20 µM |
